Test results: patent US12138256B2, “Treatment of cardiopulmonary disorders” (Bayer Aktiengesellschaft, priority 2021, dated 2024)
“And” between values parts separate entries of the source, which are not always exact repeats. Equal entries are not always repeated.

Test system: anesthetized PAH minipigs
Experiment: PAH minipig model: intratracheal application of dry powder formulations and different hydrates (PennCentury insufflator)
Format: in vivo, Göttingen minipig
Conditions: for PAP % changes vs. baseline: 375 μg/kg i.t., each animal; for BP / PAP: micronized 375 μg/kg intratracheal @90 min
Excerpt: After characterization of the effects of comparative example 11 after nebulization of compound solutions, in a further step the effects of crystalline forms of comparative example 11, e.g. sesquihydrate, e.g. example 6e on PAP and BP after inhaled application of different dry powder lactose formulations (table C2.1.8) were studied in anesthetized PAH minipigs.
As reference pure Lactose vehicle was applied in the beginning of each experiment.

[1] = time not printed, 1st row after 310
[2] = time not printed, 2nd row after 310

Compound: O.O.O.O=C(O)c1ccc(CCN(CCc2ccccc2OCc2ccc(-c3ccc(C(F)(F)F)cc3)cc2Cl)[C@H]2CCCc3nc(C(=O)O)ccc32)cc1.O=C(O)c1ccc(CCN(CCc2ccccc2OCc2ccc(-c3ccc(C(F)(F)F)cc3)cc2Cl)[C@H]2CCCc3nc(C(=O)O)ccc32)cc1 [example 6e, (5S)-{[2-(4-Carboxyphenyl)ethyl][2-(2-{[3-chloro-4′-(trifluoromethyl)biphenyl-4-yl]methoxy}phenyl)-ethyl]amino}-5,6,7,8-tetrahydroquinoline-2-carboxylic acid sesquihydrate]
- efficacy with regard to PAP reduction as well as systemic BP reduction (1.5 mg/4 kg (=375 μg/kg) intratracheally, micronized): comparable efficacy
- effect on PAP and BP after i.t. application (lactose formulation I 7.5 μg/kg, II 22.5 μg/kg, micronized sesquihydrate 375 μg/kg, n=3): decrease of PAP without any effects on BP
- time to maximum effect on PAP after i.t. application (lactose formulation I 7.5 μg/kg, lactose formulation II 22.5 μg/kg, micronized sesquihydrate 375 μg/kg): approximately 80 min
- PAP % changes vs. baseline (time 80): 100.0%
- PAP % changes vs. baseline (time 90, sesquihydrate): 98.9% and 103.6% and 99.8%
- PAP % changes vs. baseline (time 100, sesquihydrate): 99.5% and 101.4% and 97.3%
- PAP % changes vs. baseline (time 110, sesquihydrate): 89.3% and 98.7% and 86.8%
- PAP % changes vs. baseline (time 120, sesquihydrate): 84.0% and 95.6% and 75.7%
- PAP % changes vs. baseline (time 130, sesquihydrate): 78.9% and 93.7% and 70.2%
- PAP % changes vs. baseline (time 140, sesquihydrate): 75.2% and 91.8% and 67.5%
- PAP % changes vs. baseline (time 150, sesquihydrate): 74.0% and 76.0% and 65.4%
- PAP % changes vs. baseline (time 160, sesquihydrate): 71.0% and 79.5% and 65.9%
- PAP % changes vs. baseline (time 170, sesquihydrate): 68.5% and 74.3% and 61.5%
- PAP % changes vs. baseline (time 180, sesquihydrate): 63.2% and 80.8% and 62.0%
- PAP % changes vs. baseline (time 190, sesquihydrate): 61.5% and 80.8% and 58.6%
- PAP % changes vs. baseline (time 200, sesquihydrate): 62.3% and 80.3% and 60.2%
- PAP % changes vs. baseline (time 210, sesquihydrate): 61.0% and 80.7% and 59.4%
- PAP % changes vs. baseline (time 220, sesquihydrate): 59.5% and 86.3% and 57.8%
- PAP % changes vs. baseline (time 230, sesquihydrate): 58.6% and 82.6% and 57.8%
- PAP % changes vs. baseline (time 240, sesquihydrate): 59.3% and 81.5% and 57.6%
- PAP % changes vs. baseline (time 250, sesquihydrate): 59.3% and 82.2% and 56.1%
- PAP % changes vs. baseline (time 260, sesquihydrate): 58.8% and 82.7% and 57.6%
- PAP % changes vs. baseline (time 270, sesquihydrate): 59.9% and 78.3% and 55.4%
- PAP % changes vs. baseline (time 280, sesquihydrate): 58.4% and 78.3% and 55.9%
- PAP % changes vs. baseline (time 290, sesquihydrate): 57.4% and 79.6% and 53.9%
- PAP % changes vs. baseline (time 300, sesquihydrate): 60.1% and 78.7% and 54.5%
- PAP % changes vs. baseline (time 310, sesquihydrate): 58.4% and 77.6% and 53.7%
- PAP % changes vs. baseline (time 320, sesquihydrate): 61.8% and 76.3% and 55.1%
- PAP % changes vs. baseline (time 330, sesquihydrate): 61.3% and 74.8% and 53.0%

Compound: O.O.O.O=C(O)c1ccc(CCN(CCc2ccccc2OCc2ccc(-c3ccc(C(F)(F)F)cc3)cc2Cl)[C@H]2CCCc3nc(C(=O)O)ccc32)cc1.O=C(O)c1ccc(CCN(CCc2ccccc2OCc2ccc(-c3ccc(C(F)(F)F)cc3)cc2Cl)[C@H]2CCCc3nc(C(=O)O)ccc32)cc1 [sesquihydrate ex. 6e]
- BP (time 100): 99 mmHg and 111 mmHg and 117 mmHg
- PAP (time 100): 40.7 mmHg and 38.7 mmHg and 39.6 mmHg
- BP (time 110): 101 mmHg and 112 mmHg and 116 mmHg
- PAP (time 110): 36.5 mmHg and 37.6 mmHg and 35.4 mmHg
- BP (time 120): 101 mmHg and 114 mmHg and 115 mmHg
- PAP (time 120): 34.3 mmHg and 36.4 mmHg and 30.8 mmHg
- BP (time 130): 101 mmHg and 114 mmHg and 115 mmHg
- PAP (time 130): 32.3 mmHg and 35.7 mmHg and 28.6 mmHg
- BP (time 140): 99 mmHg and 120 mmHg and 114 mmHg
- PAP (time 140): 30.8 mmHg and 35.0 mmHg and 27.5 mmHg
- BP (time 150): 99 mmHg and 121 mmHg and 114 mmHg
- PAP (time 150): 30.3 mmHg and 29.0 mmHg and 26.6 mmHg
- BP (time 160): 100 mmHg and 122 mmHg and 114 mmHg
- PAP (time 160): 29.0 mmHg and 30.3 mmHg and 26.9 mmHg
- BP (time 170): 101 mmHg and 121 mmHg and 115 mmHg
- PAP (time 170): 28.0 mmHg and 28.3 mmHg and 25.1 mmHg
- BP (time 180): 99 mmHg and 119 mmHg and 115 mmHg
- PAP (time 180): 25.8 mmHg and 30.8 mmHg and 25.3 mmHg
- BP (time 190): 99 mmHg and 123 mmHg and 114 mmHg
- PAP (time 190): 25.1 mmHg and 30.8 mmHg and 23.9 mmHg
- BP (time 200): 98 mmHg and 116 mmHg and 113 mmHg
- PAP (time 200): 25.5 mmHg and 30.6 mmHg and 24.6 mmHg
- BP (time 210): 99 mmHg and 117 mmHg and 116 mmHg
- PAP (time 210): 25.0 mmHg and 30.8 mmHg and 24.2 mmHg
- BP (time 220): 97 mmHg and 123 mmHg and 114 mmHg
- PAP (time 220): 24.3 mmHg and 32.9 mmHg and 23.6 mmHg
- BP (time 230): 97 mmHg and 119 mmHg and 114 mmHg
- PAP (time 230): 24.0 mmHg and 31.5 mmHg and 23.6 mmHg
- BP (time 240): 97 mmHg and 119 mmHg and 112 mmHg
- PAP (time 240): 24.3 mmHg and 31.0 mmHg and 23.5 mmHg
- BP (time 250): 97 mmHg and 118 mmHg and 111 mmHg
- PAP (time 250): 24.2 mmHg and 31.3 mmHg and 22.9 mmHg
- BP (time 260): 96 mmHg and 116 mmHg and 112 mmHg
- PAP (time 260): 24.0 mmHg and 31.5 mmHg and 23.5 mmHg
- BP (time 270): 99 mmHg and 115 mmHg and 109 mmHg
- PAP (time 270): 24.5 mmHg and 29.8 mmHg and 22.6 mmHg
- BP (time 280): 97 mmHg and 111 mmHg and 110 mmHg
- PAP (time 280): 23.9 mmHg and 29.8 mmHg and 22.8 mmHg
- BP (time 290): 97 mmHg and 110 mmHg and 107 mmHg
- PAP (time 290): 23.5 mmHg and 30.3 mmHg and 22.0 mmHg
- BP (time 300): 98 mmHg and 109 mmHg and 108 mmHg
- PAP (time 300): 24.6 mmHg and 30.0 mmHg and 22.2 mmHg
- BP (time 310): 97 mmHg and 109 mmHg and 105 mmHg
- PAP (time 310): 23.9 mmHg and 29.6 mmHg and 21.9 mmHg
- BP [1]: 94 mmHg and 108 mmHg and 105 mmHg
- PAP [1]: 25.3 mmHg and 29.1 mmHg and 22.5 mmHg
- BP [2]: 97 mmHg and 108 mmHg and 105 mmHg
- PAP [2]: 25.1 mmHg and 28.5 mmHg and 21.6 mmHg
